# Data reported in PubChem BioAssay (NCI).
#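 Each compound was tested at five concentrations against cells in 96-well plates for 48 hours. Here, GI50 denotes the concentration required for 50% inhibition of growth. TGI marks complete inhibition of growth.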
# How the values were obtained:
# Assay in all cases: NCI tumour cell line growth inhibition, 48 h
# [1] = test system: T-47D breast
# [2] = test system: CCRF-CEM leukemia
# [3] = test system: HCC-2998 colon
# [4] = test system: OVCAR-5 ovarian
# [5] = test system: DU-145 prostate
# [6] = test system: EKVX NSCLC
# [7] = test system: SF-268 CNS
# [8] = test system: MDA-MB-435
# [9] = test system: ACHN renal
# [10] = test system: K-562 leukemia
# [11] = test system: HCT-116 colon
# [12] = test system: NCI-H226 lung
# [13] = test system: PC-3 prostate
# [14] = test system: HOP-92 NSCLC
# [15] = test system: MCF7 breast
# [16] = test system: NCI/ADR-RES ovarian
# [17] = test system: RPMI-8226 leukemia
# [18] = test system: A549 NSCLC
# [19] = test system: NCI-H23 lung
# [20] = test system: COLO 205 colon
# [21] = test system: M14 melanoma
# [22] = test system: LOX IMVI melanoma
# [23] = test system: MOLT-4 leukemia
# [24] = test system: HL-60(TB) leukemia
# [25] = test system: NCI-H460 lung
# [26] = test system: KM12 colon
# [27] = test system: SN12C renal
# [28] = test system: SF-539 CNS
# [29] = test system: IGROV1 ovarian
# [30] = test system: CAKI-1 renal
# [31] = test system: SF-295 CNS
# [32] = test system: BT-549 breast
# [33] = test system: SR leukemia
# [34] = test system: SK-MEL-28 melanoma
# [35] = test system: HS 578T breast
# [36] = test system: TK-10 renal
# [37] = test system: NCI-H522 lung
# [38] = test system: UACC-62 melanoma
# [39] = test system: A498 renal
# [40] = test system: SK-MEL-2 melanoma
# [41] = test system: RXF 393 renal
# [42] = test system: UO-31 renal
# [43] = test system: SNB-75 CNS
# [44] = test system: OVCAR-8 ovarian
# [45] = test system: HOP-62 NSCLC
# [46] = test system: SW-620 colon
# [47] = test system: SNB-19 CNS
# [48] = test system: MDA-MB-231 breast
# [49] = test system: SK-MEL-5 melanoma
# [50] = test system: UACC-257 melanoma
# [51] = test system: OVCAR-4 ovarian
# [52] = test system: 786-0 renal
# [53] = test system: OVCAR-3 ovarian
# [54] = test system: U251 CNS
# [55] = test system: HT29 colon
# [56] = test system: HCT-15 colon
# [57] = test system: SK-OV-3 ovarian
smiles,measurement,setting,value
CCOC(=O)/C=C/C1=C(c2csc3ccccc23)c2ccccc2CC1,GI50,[1],12.3 µM
same,TGI,[1],55.5 µM
same,GI50,[2],27.9 µM
same,TGI,[2],> 100 µM
same,GI50,[3],55.5 µM
same,TGI,[3],> 100 µM
same,GI50,[4],> 100 µM
same,TGI,[4],> 100 µM
same,GI50,[5],54.9 µM
same,TGI,[5],> 100 µM
same,GI50,[6],54.2 µM
same,TGI,[6],> 100 µM
same,GI50,[7],28.2 µM
same,TGI,[7],90 µM
same,GI50,[8],4.34 µM
same,TGI,[8],25.7 µM
same,GI50,[9],30.2 µM
same,TGI,[9],> 100 µM
same,GI50,[10],23.2 µM
same,TGI,[10],> 100 µM
same,GI50,[11],24.6 µM
same,TGI,[11],70.9 µM
same,GI50,[12],> 100 µM
same,TGI,[12],> 100 µM
same,GI50,[13],19.8 µM
same,TGI,[13],> 100 µM
same,GI50,[14],48.6 µM
same,TGI,[14],> 100 µM
same,GI50,[15],66.3 µM
same,TGI,[15],> 100 µM
same,GI50,[16],38.7 µM
same,TGI,[16],> 100 µM
same,GI50,[17],22.6 µM
same,TGI,[17],> 100 µM
same,GI50,[18],31.1 µM
same,TGI,[18],> 100 µM
same,GI50,[19],> 100 µM
same,TGI,[19],> 100 µM
same,GI50,[20],18.8 µM
same,TGI,[20],53.9 µM
same,GI50,[21],29.7 µM
same,TGI,[21],> 100 µM
same,GI50,[22],30.6 µM
same,TGI,[22],> 100 µM
same,GI50,[23],32.2 µM
same,TGI,[23],> 100 µM
same,GI50,[24],32.4 µM
same,TGI,[24],> 100 µM
same,GI50,[25],37.5 µM
same,TGI,[25],> 100 µM
same,GI50,[26],12.7 µM
same,TGI,[26],56.4 µM
same,GI50,[27],73.7 µM
same,TGI,[27],> 100 µM
same,GI50,[28],> 100 µM
same,TGI,[28],> 100 µM
same,GI50,[29],25.5 µM
same,TGI,[29],> 100 µM
same,GI50,[30],14.8 µM
same,TGI,[30],57.9 µM
same,GI50,[31],18.4 µM
same,TGI,[31],88.4 µM
same,GI50,[32],99.3 µM
same,TGI,[32],> 100 µM
same,GI50,[33],15.4 µM
same,TGI,[33],48.8 µM
same,GI50,[34],32 µM
same,TGI,[34],> 100 µM
same,GI50,[35],52.7 µM
same,TGI,[35],> 100 µM
same,GI50,[36],16.6 µM
same,TGI,[36],61.7 µM
same,GI50,[37],27.6 µM
same,TGI,[37],> 100 µM
same,GI50,[38],23.6 µM
same,TGI,[38],> 100 µM
same,GI50,[39],55.4 µM
same,TGI,[39],> 100 µM
same,GI50,[40],> 100 µM
same,TGI,[40],> 100 µM
same,GI50,[41],33.7 µM
same,TGI,[41],> 100 µM
same,GI50,[42],58.1 µM
same,TGI,[42],> 100 µM
same,GI50,[43],15.2 µM
same,TGI,[43],74.4 µM
same,GI50,[44],79 µM
same,TGI,[44],> 100 µM
same,GI50,[45],41.6 µM
same,TGI,[45],> 100 µM
same,GI50,[46],31.8 µM
same,TGI,[46],> 100 µM
same,GI50,[47],21.3 µM
same,TGI,[47],80.9 µM
same,GI50,[48],34.9 µM
same,TGI,[48],> 100 µM
same,GI50,[49],28.5 µM
same,TGI,[49],> 100 µM
same,GI50,[50],23.4 µM
same,TGI,[50],82.6 µM
same,GI50,[51],11.6 µM
same,TGI,[51],48.8 µM
same,GI50,[52],57 µM
same,TGI,[52],> 100 µM
same,GI50,[53],27.4 µM
same,TGI,[53],> 100 µM
CN(C)CCNc1ccc(NCCN(C)C)c2c1C(=O)c1ncsc1C2=O,TGI,[1],> 100 µM
same,TGI,[2],10.9 µM
same,TGI,[3],31.3 µM
same,TGI,[54],29.7 µM
same,TGI,[4],55.3 µM
same,TGI,[5],25.9 µM
same,TGI,[6],26.4 µM
same,TGI,[7],39.3 µM
same,TGI,[8],27.8 µM
same,TGI,[9],22.7 µM
same,TGI,[10],34.3 µM
same,TGI,[11],22.7 µM
same,TGI,[12],17.7 µM
same,TGI,[13],38.1 µM
same,TGI,[14],29.9 µM
same,TGI,[15],21.3 µM
same,TGI,[16],> 100 µM
same,TGI,[17],29.4 µM
same,TGI,[18],31.3 µM
same,TGI,[19],30 µM
same,TGI,[20],31.1 µM
same,TGI,[55],19.7 µM
same,TGI,[21],36.6 µM
same,TGI,[22],29.5 µM
same,TGI,[23],5.57 µM
same,TGI,[26],25.2 µM
same,TGI,[27],25.7 µM
same,TGI,[28],28.1 µM
same,TGI,[29],28.1 µM
same,TGI,[56],27.6 µM
same,TGI,[30],57.5 µM
same,TGI,[57],38.8 µM
same,TGI,[31],26.6 µM
same,TGI,[32],35.1 µM
same,TGI,[33],4.39 µM
same,TGI,[34],33.7 µM
same,TGI,[35],50.3 µM
same,TGI,[36],58.2 µM
same,TGI,[37],31.7 µM
same,TGI,[38],24.6 µM
same,TGI,[39],28.1 µM
same,TGI,[40],42.7 µM
same,TGI,[41],41 µM
same,TGI,[42],32.2 µM
same,TGI,[43],33 µM
same,TGI,[44],27.8 µM
same,TGI,[45],43.6 µM
same,TGI,[46],29.7 µM
same,TGI,[47],51 µM
same,TGI,[48],32.2 µM
same,TGI,[49],31.6 µM
same,TGI,[50],34.7 µM
same,TGI,[51],25.1 µM
same,TGI,[52],24 µM
same,TGI,[53],37.2 µM
